Consider 101 molecules from EPA's aquatic toxicity sets.

The structures appear in SMILES notation.

The subject of this data set is Tetrahymena pyriformis. The data set can be described thus: 48 h IGC50 (-log10 mol/L); higher = more toxic.
For `c1cn[nH]c1`, the “48 h IGC50 (-log10 mol/L)” value is 1.29.
In the case of `CCN(C)c1ccccc1` it was 3.29; in that of `COC(=O)CCC(=O)OC`, 1.94; in that of `Nc1ncc([N+](=O)[O-])cn1`, 2.57.
In the case of `Nc1ccccc1I` it was 3.35; in that of `OCc1cc(Br)ccc1O`, 3.34; in that of `c1csc(-c2cccs2)c1`, 4.04.
`O=c1ccc(Cl)c[nH]1`: the “48 h IGC50 (-log10 mol/L)” value turned out to be 2.25.
With `O=C(c1ccccc1)c1ccccc1O`, the “48 h IGC50 (-log10 mol/L)” value turned out to be 4.23.
With `CCCC(=O)NN`, the “48 h IGC50 (-log10 mol/L)” value is 2.03.
For the molecule `Fc1ccc(-c2ccccc2)cc1`, the “48 h IGC50 (-log10 mol/L)” value is 3.53.
In the case of `O=C1CCCC(=O)C1` it was 2.07; in that of `C=C(C)C#N`, 1.35; in that of `CC/C=C/C(=O)O`, 2.72.
The figure for `CCC#CC(O)CC` (stereo unspecified) is 2.97.
In the case of `CCC#CCO` it was 2.43.
Consider `CCOC(=O)CCCl`, for which the “48 h IGC50 (-log10 mol/L)” value was determined as 2.5.
The figure for `COC(=O)CCCBr` is 3.07; for `N#Cc1ccc(C=O)cc1` it is 3.04; for `OC12CC3CC(CC(C3)C1)C2` it is 2.92.
The figure for `O=C(CBr)c1cc2ccccc2oc1=O` is 5.66; for `CCCCCCCCNC(N)=S` it is 4.51.
In the case of `O=[N+]([O-])c1ccc(CO)cc1` it was 3.12.
On to `OCCc1cccc2ccccc12`, for which the “48 h IGC50 (-log10 mol/L)” value worked out at 3.27.
In the case of `CCCC/C=C/C(C)=O` it was 3.74.
Consider `CCCCCCC#N`, for which the “48 h IGC50 (-log10 mol/L)” value stood at 2.76.
The figure for `CCOC(=O)C(C)CC` (stereo unspecified) is 2.11.
In the case of `Nc1c(Br)cc(Cl)cc1Br` it was 4.52; in that of `N#Cc1ccc(Cl)s1`, 2.92.
The figure for `O=Cc1cccc(Br)c1` is 3.51.
For the molecule `CCCCCC1CCCC(=O)O1` (stereo unspecified), the “48 h IGC50 (-log10 mol/L)” value was determined as 2.92.
In the case of `Oc1c(-c2ccccc2)cccc1-c1ccccc1` it was 5.11.
In the case of `CNCCc1ccccc1` it was 2.59.
As to `O=[N+]([O-])c1cccnc1Cl`, the “48 h IGC50 (-log10 mol/L)” value stood at 3.87.
For `OCCCCO`, the “48 h IGC50 (-log10 mol/L)” value amounted to 0.764.
The figure for `CC(C)CC(N)=O` is 1.34; for `O=Cc1ccccc1F` it is 3.08.
The figure for `O=[N+]([O-])c1ccc(I)c([N+](=O)[O-])c1` is 5.12.
In the case of `Oc1cc(Cl)c(O)cc1Cl` it was 4.81.
Turning to `O=[N+]([O-])c1ccc(O)c(O)c1`, the “48 h IGC50 (-log10 mol/L)” value came to 4.17.
In the case of `CC(=O)c1ccco1` it was 1.96; in that of `O=Cc1cc(Br)c(O)c(Br)c1`, 3.89.
In the case of `CCc1ccc(Br)cc1` it was 3.67.
The figure for `CCCC(=O)CCC` is 2.33; for `Oc1ccc(F)cc1F` it is 3.6.
With `C=COC(=O)c1ccc(C(C)(C)C)cc1`, the “48 h IGC50 (-log10 mol/L)” value is 4.57.
For `CCCCCCO`, the “48 h IGC50 (-log10 mol/L)” value came to 2.62.
Take `BrCCCc1ccccc1`: the “48 h IGC50 (-log10 mol/L)” value is 3.69.
In the case of `COc1cc(C=O)cc(OC)c1O` it was 3.17; in that of `CCc1cc(O)ccc1Cl`, 4.08.
For the molecule `NNC=O`, the “48 h IGC50 (-log10 mol/L)” value amounted to 2.13.
The figure for `Cc1ccccc1C#N` is 2.76.
The figure for `N#CCCCBr` is 2.54; for `O=C/C=C/c1ccco1` it is 3.37; for `OC(c1ccccc1)c1ccccc1` it is 3.5.
The figure for `CCCCCCCCCC(C)O` (stereo unspecified) is 4.58; for `CCCCCC/C=C/CO` it is 3.75; for `CC#Cc1ccccc1` it is 3.19.
For the molecule `Cc1cc(O)ccc1[N+](=O)[O-]`, the “48 h IGC50 (-log10 mol/L)” value is 4.73.
On to `CCCCCCCCCl`, for which the “48 h IGC50 (-log10 mol/L)” value was found to be 3.67.
The figure for `CCCOS(=O)OCCC` is 3.09.
The figure for `CCC#CCCO` is 1.98; for `O=C1CCCO1` it is 1.28.
In the case of `CC(C)CCN` it was 2.42; in that of `CCCCC1CCC(=O)O1` (stereo unspecified), 2.62.
Turning to `CCCCCCCC#N`, the “48 h IGC50 (-log10 mol/L)” value came to 3.28.
The figure for `CCCCCC#CCCO` is 3.34; for `CCC(Br)C(=O)OC` (stereo unspecified) it is 4.02; for `Oc1ccc(N=Nc2ccccc2)cc1` it is 4.66.
The figure for `CCCCCC/C=C/C=O` is 4.6; for `CC(C)COC(=O)c1ccccc1` it is 3.98; for `CCCC(Br)C(=O)OCC` (stereo unspecified) it is 3.7.
Take `O=[N+]([O-])c1ccc(/C=N/O)cc1`: the “48 h IGC50 (-log10 mol/L)” value was 3.68.
In the case of `CC#CC(O)CC` (stereo unspecified), the “48 h IGC50 (-log10 mol/L)” value was determined as 2.81.
As for `CC(C)(C)N`, the “48 h IGC50 (-log10 mol/L)” value stood at 2.1.
`C#CC(C)=O`: the “48 h IGC50 (-log10 mol/L)” value came out at 4.96.
As for `CC(C)=CC=O`, the “48 h IGC50 (-log10 mol/L)” value came out at 3.09.
The figure for `CCCOC=O` is 1.98.
The figure for `O=[N+]([O-])c1cccnc1SCc1ccccc1` is 4.72.
In the case of `CCCCCCCCOC(=O)CC#N` it was 3.9; in that of `OCc1cccc(O)c1`, 1.98; in that of `CCCCC(Br)CBr` (stereo unspecified), 4.15.
As to `CCCCCCCCCCCC#N`, the “48 h IGC50 (-log10 mol/L)” value came out at 4.9.
The figure for `Ic1ccccc1` is 3.36.
For the molecule `c1ccc2ccccc2c1`, the “48 h IGC50 (-log10 mol/L)” value came to 2.88.
In the case of `COc1cc(Cl)cc(Cl)c1` it was 3.93; in that of `N#Cc1ccccc1C(N)=O`, 2.68.
The figure for `CCC(C)CN` (stereo unspecified) is 2.52; for `O=[N+]([O-])c1cc(Cl)cc(Cl)c1[N+](=O)[O-]` it is 5.42.
In the case of `C#Cc1ccccc1` it was 2.86; in that of `O=[N+]([O-])c1cc(Cl)c(Cl)c([N+](=O)[O-])c1Cl`, 5.6.
`CCCCC(=O)OC`: the “48 h IGC50 (-log10 mol/L)” value stood at 2.15.
In the case of `CC(C#N)c1ccccc1` (stereo unspecified) it was 3.01; in that of `O=Nc1ccc(O)cc1`, 3.65.
The figure for `CCC/C=C/CO` is 2.53.
Regarding `CC(C)CCCO`, the “48 h IGC50 (-log10 mol/L)” value turned out to be 2.36.
In the case of `Cc1cc(C)c(O)c(N)c1` it was 3.89.
Turning to `CCCCC(=O)OCCC`, the “48 h IGC50 (-log10 mol/L)” value stood at 3.01.
As to `CCOC(=O)c1ccc(F)cc1`, the “48 h IGC50 (-log10 mol/L)” value was 3.01.
In the case of `CC(=O)OC1=CCCCC1` it was 2.6.
Consider `N#Cc1cccnc1`, for which the “48 h IGC50 (-log10 mol/L)” value amounted to 2.26.
